Measurements: US20250353891A1 (MEDIMMUNE LIMITED, priority 2022, published 2025)
Starred links: 1 amine or outer side, 2 acyl side, 3 side chain; linkers in the order of their positions; H or OH if unused. Non-standard residues stand in square brackets, D forms with d. Residues, ends and D or L forms follow the SMILES beside them. Groups on a side chain read outwards from the residue. *: point of attachment. X1 = CC(C)(CCNC(=N)N)[C@H](N[*:1])C(=O)[*:2]; C18 diacid = O=C(O)CCCCCCCCCCCCCCCCC(=O)*; γGlu = O=C(O)[C@H](CCC(=O)[*:2])N[*:1]; Stearoyl = CCCCCCCCCCCCCCCCCC(=O)*; Palmitoyl = CCCCCCCCCCCCCCCC(=O)*; αMeF = C[C@](N)(Cc1ccccc1)C(=O)O; Myristoyl = CCCCCCCCCCCCCC(=O)*; PEG2 = NCCOCCOCCC(=O)O; AEEA = NCCOCCOCC(=O)O; Aib = CC(C)(N)C(=O)O

Target: human GLP-1 receptor (hGLP-1R) (Homo sapiens, UniProt P43220)
Test: cAMP production (HTRF) in CHO cells expressing hGLP-1R
Assay type: cell-based
Set-up: expressed in transfected cells
Details: for % Relative Potency Ratio: Table 6, % GLP-1R activity relative to GLP-1 / % GlucR activity relative to glucagon; for EC50: Table 6, peptides modified at position 17, cAMP in CHO hGLP-1R cells, geometric mean, read-out: hGLP-1R EC50
Experimental: Cells were re-suspended in assay buffer at a batch-dependent optimized concentration (typically hGLP-1R cells at 1×10^5 cells/mL, hGCGR cells at 2×10^5 cells/mL).
Cells were added to the assay plate using a multidrop dispenser and incubated at room temperature for 30 minutes before measuring the cAMP level using a cAMP dynamic 2 homogeneous time resolved Fluorescence (HTRF) kit (Cisbio Bioassays #62AM4PEJ) following the two-step protocol as per manufacturer's recommendations. In brief, anti-cAMP cryptate (donor fluorophore) and cAMP-d2 (acceptor fluorophore) were made up separately by diluting each 1 in 20 in conjugate and lysis buffer provided in the kit. Anti-CAMP cryptate was added to all wells of the assay plate, followed by cAMP-d2 added to all wells except non-specific binding (NSB) wells (to which conjugate and lysis buffer was added).
Data was transformed to % Delta F as described in the manufacturer's guidelines and analyzed by 4-parameter logistic fit to determine EC50 values.

Chain of human GLP-1 receptor (hGLP-1R) (P43220 24-463): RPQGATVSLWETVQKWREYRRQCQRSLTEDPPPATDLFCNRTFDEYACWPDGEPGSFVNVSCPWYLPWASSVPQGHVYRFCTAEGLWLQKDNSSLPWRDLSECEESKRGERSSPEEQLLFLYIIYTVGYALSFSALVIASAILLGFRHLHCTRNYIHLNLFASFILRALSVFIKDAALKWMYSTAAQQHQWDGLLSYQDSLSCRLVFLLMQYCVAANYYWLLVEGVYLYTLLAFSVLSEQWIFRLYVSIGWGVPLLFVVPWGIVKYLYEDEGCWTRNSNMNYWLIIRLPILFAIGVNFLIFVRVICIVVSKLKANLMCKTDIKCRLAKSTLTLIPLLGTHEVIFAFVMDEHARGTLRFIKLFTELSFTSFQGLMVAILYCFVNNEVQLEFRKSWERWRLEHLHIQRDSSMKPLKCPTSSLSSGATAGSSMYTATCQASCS

SMILES	% Relative Potency Ratio	EC50
CCCCCCCCCCCCCCCCCC(=O)N[C@@H](CCC(=O)N[C@@H](CCC(=O)NCCOCCOCCC(=O)NCCOCCOCCC(=O)NCCCC[C@H](NC(=O)[C@H](CO)NC(=O)[C@H](CC(=O)O)NC(=O)[C@H](CC(C)C)NC(=O)[C@](C)(Cc1ccccc1)NC(=O)[C@H](CCCCN)NC(=O)[C@H](CO)NC(=O)[C@@H](NC(=O)[C@H](CC(=O)O)NC(=O)[C@H](CO)NC(=O)[C@@H](NC(=O)[C@](C)(Cc1ccccc1)NC(=O)[C@H](CO)NC(=O)CNC(=O)[C@H](CCC(N)=O)NC(=O)C(C)(C)NC(=O)[C@@H](N)Cc1c[nH]cn1)[C@@H](C)O)C(C)C)C(=O)N[C@H](C(=O)N[C@@H](C)C(=O)N[C@@H](CCC(N)=O)C(=O)N[C@@H](CC(=O)O)C(=O)N[C@@](C)(Cc1ccccc1)C(=O)N[C@H](C(=O)N[C@@H](CCC(=O)O)C(=O)NC(C)(C)C(=O)N[C@@H](CC(C)C)C(=O)N[C@@H](CCC(=O)O)C(=O)N[C@@H](C)C(=O)NCC(=O)NCC(N)=O)C(C)C)C(C)(C)CCNC(=N)N)C(=O)O)C(=O)O [Peptide 74] (H-H[Aib]QGS[αMeF]TSDVSK[αMeF]LDSK([PEG2-PEG2-γGlu-γGlu-Stearoyl])[X1]AQD[αMeF]VE[Aib]LEAGG-NH2; N-terminus assumed)	11.8	–
CCCCCCCCCCCCCCCCCC(=O)N[C@@H](CCC(=O)N[C@@H](CCC(=O)NCCOCCOCCC(=O)NCCOCCOCCC(=O)NCCCC[C@H](NC(=O)[C@H](CO)NC(=O)[C@H](CC(=O)O)NC(=O)[C@H](CC(C)C)NC(=O)[C@](C)(Cc1ccccc1)NC(=O)[C@H](CCCCN)NC(=O)[C@H](CO)NC(=O)[C@@H](NC(=O)[C@H](CC(=O)O)NC(=O)[C@H](CO)NC(=O)[C@@H](NC(=O)[C@](C)(Cc1ccccc1)NC(=O)[C@H](CO)NC(=O)CNC(=O)[C@H](CCC(N)=O)NC(=O)[C@H](CO)NC(=O)[C@@H](N)Cc1c[nH]cn1)[C@@H](C)O)C(C)C)C(=O)N[C@@H](C)C(=O)N[C@@H](C)C(=O)N[C@@H](CCC(N)=O)C(=O)N[C@@H](CC(=O)O)C(=O)N[C@@](C)(Cc1ccccc1)C(=O)N[C@H](C(=O)N[C@@H](CCC(N)=O)C(=O)NC(C)(C)C(=O)N[C@H](C(=O)N[C@@H](C)C(=O)N[C@@H](CC(N)=O)C(=O)N[C@H](C(N)=O)[C@@H](C)O)[C@@H](C)CC)C(C)C)C(=O)O)C(=O)O [Peptide 82] (H-HSQGS[αMeF]TSDVSK[αMeF]LDSK([PEG2-PEG2-γGlu-γGlu-Stearoyl])AAQD[αMeF]VQ[Aib]IANT-NH2; N-terminus assumed)	18.3	–
CC(C)C[C@H](NC(=O)[C@H](Cc1c[nH]c2ccccc12)NC(=O)[C@H](CCCNC(=N)N)NC(=O)[C@@H](NC(=O)[C@H](Cc1ccccc1)NC(=O)[C@H](CC(=O)O)NC(=O)[C@H](CCCNC(=N)N)NC(=O)[C@H](C)NC(=O)[C@H](CCCNC(=N)N)NC(=O)[C@H](CCCCNC(=O)CC[C@H](NC(=O)CC[C@H](NC(=O)COCCOCCNC(=O)COCCOCCNC(=O)CC[C@H](NC(=O)CC[C@H](NC(=O)CCCCCCCCCCCCCCCCC(=O)O)C(=O)O)C(=O)O)C(=O)O)C(=O)O)NC(=O)[C@H](CO)NC(=O)[C@H](CC(=O)O)NC(=O)[C@H](CC(C)C)NC(=O)[C@](C)(Cc1ccccc1)NC(=O)[C@H](CCCCN)NC(=O)[C@H](CO)NC(=O)[C@@H](NC(=O)[C@H](CC(=O)O)NC(=O)[C@H](CO)NC(=O)[C@@H](NC(=O)[C@H](Cc1ccccc1)NC(=O)[C@@H](NC(=O)CNC(=O)[C@H](CCC(N)=O)NC(=O)C(C)(C)NC(=O)[C@@H](N)Cc1c[nH]cn1)[C@@H](C)O)[C@@H](C)O)C(C)C)C(C)C)C(=O)N[C@@H](CC(C)C)C(=O)N[C@@H](CCC(=O)O)C(=O)NC(C)(C)C(=O)NCC(=O)O [Peptide 136] (H-H[Aib]QGTFTSDVSK[αMeF]LDSK([γGlu-γGlu-AEEA-AEEA-γGlu-γGlu-C18 diacid])RARDFVRWLLE[Aib]G-OH; N-terminus assumed)	22.3	–
CC(C)C[C@H](NC(=O)[C@H](Cc1c[nH]c2ccccc12)NC(=O)[C@H](CCCNC(=N)N)NC(=O)[C@@H](NC(=O)[C@H](Cc1ccccc1)NC(=O)[C@H](CC(=O)O)NC(=O)[C@H](CCCNC(=N)N)NC(=O)[C@H](C)NC(=O)[C@H](CCCNC(=N)N)NC(=O)[C@H](CCCCNC(=O)CC[C@H](NC(=O)CC[C@H](NC(=O)COCCOCCNC(=O)COCCOCCNC(=O)CC[C@H](NC(=O)CC[C@H](NC(=O)CCCCCCCCCCCCCCCCC(=O)O)C(=O)O)C(=O)O)C(=O)O)C(=O)O)NC(=O)[C@H](CO)NC(=O)[C@H](CC(=O)O)NC(=O)[C@H](CC(C)C)NC(=O)[C@](C)(Cc1ccccc1)NC(=O)[C@H](CCCCN)NC(=O)[C@H](CO)NC(=O)[C@@H](NC(=O)[C@H](CC(=O)O)NC(=O)[C@H](CO)NC(=O)[C@@H](NC(=O)[C@H](Cc1ccccc1)NC(=O)[C@@H](NC(=O)CNC(=O)[C@H](CCC(N)=O)NC(=O)C(C)(C)NC(=O)[C@@H](N)Cc1c[nH]cn1)[C@@H](C)O)[C@@H](C)O)C(C)C)C(C)C)C(=O)N[C@@H](CC(C)C)C(=O)N[C@@H](CCC(=O)O)C(=O)NC(C)(C)C(=O)NCC(=O)O [Peptide 144] (H-H[Aib]QGTFTSDVSK[αMeF]LDSK([γGlu-γGlu-AEEA-AEEA-γGlu-γGlu-C18 diacid])RARDFVRWLLE[Aib]G-OH; N-terminus assumed)	30.7	0.0452 nM
CC(C)C[C@H](NC(=O)[C@H](Cc1c[nH]c2ccccc12)NC(=O)[C@H](CCCNC(=N)N)NC(=O)[C@@H](NC(=O)[C@H](Cc1ccccc1)NC(=O)[C@H](CC(=O)O)NC(=O)[C@H](CCC(N)=O)NC(=O)[C@H](C)NC(=O)[C@H](CCCNC(=N)N)NC(=O)[C@H](CCCCNC(=O)COCCOCCNC(=O)COCCOCCNC(=O)CC[C@H](NC(=O)CCCCCCCCCCCCCCCCC(=O)O)C(=O)O)NC(=O)[C@H](CO)NC(=O)[C@H](CC(=O)O)NC(=O)[C@H](CC(C)C)NC(=O)[C@](C)(Cc1ccccc1)NC(=O)[C@H](CCCCN)NC(=O)[C@H](CO)NC(=O)[C@@H](NC(=O)[C@H](CC(=O)O)NC(=O)[C@H](CO)NC(=O)[C@@H](NC(=O)[C@H](Cc1ccccc1)NC(=O)[C@@H](NC(=O)CNC(=O)[C@H](CCC(N)=O)NC(=O)C(C)(C)NC(=O)[C@@H](N)Cc1c[nH]cn1)[C@@H](C)O)[C@@H](C)O)C(C)C)C(C)C)C(=O)N[C@@H](CC(C)C)C(=O)NC(C)(C)C(=O)N[C@H](C(=O)N[C@@H](CCCCN)C(=O)O)[C@@H](C)O [Peptide 177]	25.5	–

Results, then the compound that gave them:

% Relative Potency Ratio	EC50	SMILES
8.0	–	CCCCCCCCCCCCCCCC(=O)N[C@@H](CCC(=O)N[C@@H](CCC(=O)NCCOCCOCCC(=O)NCCOCCOCCC(=O)NCCCC[C@H](NC(=O)[C@H](CO)NC(=O)[C@H](CC(=O)O)NC(=O)[C@H](CC(C)C)NC(=O)[C@](C)(Cc1ccccc1)NC(=O)[C@H](CCCCN)NC(=O)[C@H](CO)NC(=O)[C@@H](NC(=O)[C@H](CC(=O)O)NC(=O)[C@H](CO)NC(=O)[C@@H](NC(=O)[C@](C)(Cc1ccccc1)NC(=O)[C@H](CO)NC(=O)CNC(=O)[C@H](CCC(N)=O)NC(=O)[C@H](CO)NC(=O)[C@@H](N)Cc1c[nH]cn1)[C@@H](C)O)C(C)C)C(=O)N[C@@H](C)C(=O)N[C@@H](C)C(=O)N[C@@H](CCC(N)=O)C(=O)N[C@@H](CC(=O)O)C(=O)N[C@@](C)(Cc1ccccc1)C(=O)N[C@H](C(=O)N[C@@H](CCC(N)=O)C(=O)N[C@H](C(=O)N[C@H](C(=O)N[C@@H](C)C(=O)N[C@@H](CC(N)=O)C(N)=O)[C@@H](C)CC)[C@@H](C)CC)C(C)C)C(=O)O)C(=O)O [Peptide 89] (H-HSQGS[αMeF]TSDVSK[αMeF]LDSK([PEG2-PEG2-γGlu-γGlu-Palmitoyl])AAQD[αMeF]VQIIAN-NH2; N-terminus assumed)
1.2	0.00142 nM	CCCCCCCCCCCCCC(=O)N[C@@H](CCC(=O)NCCOCCOCCC(=O)NCCOCCOCCC(=O)NCCCC[C@H](NC(=O)[C@H](CO)NC(=O)[C@H](CC(=O)O)NC(=O)[C@H](CC(C)C)NC(=O)[C@@H](NC(=O)[C@H](CCCCN)NC(=O)[C@H](CO)NC(=O)[C@@H](NC(=O)[C@H](CC(=O)O)NC(=O)[C@H](CO)NC(=O)[C@@H](NC(=O)[C@](C)(Cc1ccccc1)NC(=O)[C@H](CO)NC(=O)CNC(=O)[C@H](CCC(N)=O)NC(=O)[C@H](CO)NC(=O)[C@@H](N)Cc1c[nH]cn1)[C@@H](C)O)C(C)C)[C@@H](C)CC)C(=O)N[C@@H](C)C(=O)N[C@@H](C)C(=O)N[C@@H](CCC(N)=O)C(=O)N[C@@H](CC(=O)O)C(=O)N[C@@](C)(Cc1ccccc1)C(=O)N[C@H](C(=O)N[C@@H](CCC(N)=O)C(=O)NC(C)(C)C(=O)N[C@H](C(=O)N[C@H](C(=O)N[C@@H](CC(N)=O)C(=O)N[C@H](C(N)=O)[C@@H](C)O)[C@@H](C)CC)[C@@H](C)CC)C(C)C)C(=O)O [Peptide 122] (H-HSQGS[αMeF]TSDVSKILDSK([PEG2-PEG2-γGlu-Myristoyl])AAQD[αMeF]VQ[Aib]IINT-NH2; N-terminus assumed)
